# Test results from patent publication US7863235B2, “Method of activating α-amylase with oxidizing agents” (Kao Corporation, priority 2004, dated 2011).
# Tested on: Duramyl 60T (α-amylase)
# Test: Activation of Duramyl 60T by types of oxidizing agents (phadebas method)
# Format: biochemical
# Conditions: activity of Duramyl 60T (a1) after contact with oxidizing agent powder (b2), ratio 10/1; 25° C., 8 g/m^3, 30 minutes
# Procedure: One tablet from Neo, Amylase Test “Daiichi” (product number: 701501-005, available from Daiichi Pure Chemicals Co., Ltd.) was added to 5 mL buffer (Britton-Robinson's Buffer, pH 8.5, 50 mM (Koichi Anan et al., Fundamental Biochemical Experimental Method 6 [in Japanese], p. 277, Maruzen Co., Ltd.)) and stirred for about 10 seconds, then 1 mL enzyme solution diluted with 2 mM aqueous calcium chloride was added, and the mixture was reacted at 50° C. for 15 minutes. 1 mL of 0.5 N aqueous sodium hydroxide was added to the solution under stirring to terminate the reaction, and then the reaction solution was centrifuged (400×g, 5 minutes) to precipitate insoluble components, and the supernatant thus obtained by centrifugation was measured for absorbance at 620 nm.
# One tablet from Neo, Amylase Test “Daiichi” was added to 5 mL buffer (Britton-Robinson's Buffer, pH 8.5, 50 mM (Koichi Anan et al., Fundamental Biochemical Experimental Method 6 [in Japanese], p. 277, Maruzen Co., Ltd.)) and stirred for about 10 seconds. […] The supernatant thus obtained by centrifugation was measured for absorbance at 620 nm.
# The activity of amylase was calculated from the difference in absorbance between (1) and (2) in a calibration curve as a standard of an International Unit sample enclosed with Neo, Amylase Test “Daiichi”. […]
row,SMILES,Relative activity (%)
1,"O.O.O.O.O=BO[O-].[Na+] [Sodium perborate•4H2O, sodium perborate.4H2O]",140
2,"O.[Na+].[O-][Cl+3]([O-])([O-])[O-] [Sodium perchlorate•1H2O, sodium perchlorate.1H2O]",120
